pIC50, pKd: −log10 of the molar value.
How the values were obtained:
α4β7 = biological target: T1, α4β7 (Homo sapiens, UniProt P13612+P26010); assay: Direct binding assay for α4β7 (VCAM-Ig, JY cells)
T1 construct: host or cells: JY human B-cell line
T1 sequence (P13612 34-1032): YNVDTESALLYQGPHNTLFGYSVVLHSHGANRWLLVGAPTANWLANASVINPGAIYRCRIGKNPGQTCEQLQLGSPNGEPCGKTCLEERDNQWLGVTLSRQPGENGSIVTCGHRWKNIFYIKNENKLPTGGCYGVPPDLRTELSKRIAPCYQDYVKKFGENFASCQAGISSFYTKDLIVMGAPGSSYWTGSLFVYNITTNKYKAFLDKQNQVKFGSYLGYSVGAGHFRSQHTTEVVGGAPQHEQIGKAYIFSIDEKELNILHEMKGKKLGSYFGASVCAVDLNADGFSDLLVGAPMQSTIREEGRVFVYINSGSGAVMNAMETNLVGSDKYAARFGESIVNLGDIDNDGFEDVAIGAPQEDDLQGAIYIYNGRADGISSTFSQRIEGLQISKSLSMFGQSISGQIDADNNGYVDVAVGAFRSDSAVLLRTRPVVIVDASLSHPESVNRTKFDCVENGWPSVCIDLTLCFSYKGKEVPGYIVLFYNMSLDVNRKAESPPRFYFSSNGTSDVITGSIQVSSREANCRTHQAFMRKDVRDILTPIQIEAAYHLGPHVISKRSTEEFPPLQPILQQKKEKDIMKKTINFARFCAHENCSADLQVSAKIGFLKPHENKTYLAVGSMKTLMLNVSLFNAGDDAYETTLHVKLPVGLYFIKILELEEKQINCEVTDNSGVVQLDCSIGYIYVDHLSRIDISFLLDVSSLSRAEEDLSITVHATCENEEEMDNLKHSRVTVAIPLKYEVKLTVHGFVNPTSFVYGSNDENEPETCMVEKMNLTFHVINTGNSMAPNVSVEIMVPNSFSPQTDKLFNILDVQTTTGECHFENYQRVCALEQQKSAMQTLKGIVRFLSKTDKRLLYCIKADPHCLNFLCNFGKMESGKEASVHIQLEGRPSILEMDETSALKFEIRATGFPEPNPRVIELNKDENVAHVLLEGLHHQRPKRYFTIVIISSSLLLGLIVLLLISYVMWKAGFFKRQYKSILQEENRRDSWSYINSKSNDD
T1 sequence (P26010 20-798): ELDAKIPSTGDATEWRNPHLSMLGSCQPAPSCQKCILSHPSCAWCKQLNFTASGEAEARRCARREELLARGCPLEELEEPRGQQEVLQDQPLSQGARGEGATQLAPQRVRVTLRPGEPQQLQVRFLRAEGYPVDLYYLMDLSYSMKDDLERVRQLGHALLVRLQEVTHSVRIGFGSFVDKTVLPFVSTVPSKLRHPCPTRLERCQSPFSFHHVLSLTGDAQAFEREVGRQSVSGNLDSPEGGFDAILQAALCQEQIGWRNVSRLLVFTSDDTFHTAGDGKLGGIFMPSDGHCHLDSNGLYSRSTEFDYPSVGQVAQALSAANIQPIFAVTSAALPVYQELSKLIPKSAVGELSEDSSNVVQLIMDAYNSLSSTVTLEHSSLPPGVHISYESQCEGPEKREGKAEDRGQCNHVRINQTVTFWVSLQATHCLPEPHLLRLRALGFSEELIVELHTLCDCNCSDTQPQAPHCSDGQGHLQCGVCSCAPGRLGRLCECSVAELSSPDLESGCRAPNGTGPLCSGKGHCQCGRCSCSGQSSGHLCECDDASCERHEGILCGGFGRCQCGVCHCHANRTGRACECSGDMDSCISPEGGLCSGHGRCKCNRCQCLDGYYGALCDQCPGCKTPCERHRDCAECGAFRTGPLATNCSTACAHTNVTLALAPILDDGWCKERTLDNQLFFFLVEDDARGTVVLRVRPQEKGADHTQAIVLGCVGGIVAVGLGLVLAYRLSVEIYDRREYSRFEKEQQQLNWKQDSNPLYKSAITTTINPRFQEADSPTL
Protocol: The results presented in Table 3 summarize the integrin selectivity for PEGylated inhibitors. The selectivity of the PEGylated inhibitors for the four integrins indicated were tested in adhesion formats for α1β1 and α2β1, and by direct binding for α4β7. Serial dilutions of each compound were tested and IC50 values calculated from the concentration dependence of the inhibition curves. KD values derived from kinetic data are shown for binding to α4β1.

α4β1 [1] = biological target: T2, α4β1 (Homo sapiens, UniProt P05556+P13612); assay: Kinetic binding to α4β1 on Jurkat cells, competition with 35S-B as probe for free α4β1; set-up: endogenous in cells; host or cells: Jurkat human T-cell line; conditions: for koff: read-out: koff/10^−4; for kon: read-out: kon/10^6; for pKd: calculated from on- and off-rate constants
Protocol: All cells were periodically monitored for high integrin surface expression by FACS analysis. The binding of the various inhibitors to α4β1 were assessed on Jurkat cells by competition using radioactive ^35S-B as a reporter for a 1 occupancy. Jurkat cells were pelleted by centrifugation, washed two times with TBS (50 mM Tris HCl, 150 mM NaCl, 0.1% bovine serum albumin, 2 mM glucose, 10 mM HEPES pH 7.4), suspended at approximately 2×10^6 cells/mL in TBS, and counted using a Neubauer hemocytometer. The cells were further diluted 2×10^6 cells/mL with TBS containing 1 mM CaCl2 and 1 mM MgCl2 and treated with serial dilutions of test compound for 1 hour, and then 5 nM ^35S-B, an amount sufficient to bind all unoccupied receptors, was added for 10 minutes before measuring the bound counts. The cells were then pelleted by centrifugation, resuspended in 100 μL of TBS plus Mn^2+, and transferred to a scintillation vial containing 2.9 mL of ScintiVerse II (Fisher Scientific). Cell-associated radioactivity was quantified by scintillation counting. All studies were performed in siliconized 1.5 mL eppendorf tubes with a standard 1 mL sample volume. Each condition was tested in at least two independent studies. Non-specific binding of ^35S-B to cells was assessed at each cell density and ^35S-B concentration in TBS but in the absence of added metal ion. Specific counts bound were calculated by subtracting non specific counts from total counts bound. Counts bound under these conditions measures integrin that is not occupied by the test compound and is therefore free to bind the ^35S-B. The competition format was also used for kinetic binding studies. Binding and dissociation constants were calculated from α4β1 that remained free to bind the ^35S-B after treatment with test compound.
The affinities of the PEGylated inhibitors for α4β1 were calculated from association and disassociation rate constants using a kinetic analysis. For these studies, Jurkat cells expressing α4β1 (75,000 copies/cell) were treated with the inhibitors and then ^35S-B was added as a probe to detect free α4β1. The levels of bound inhibitor were calculated from a measure of total ^35S-B bound in the absence of added inhibitor and counts bound following inhibitor treatment.

α4β1 [2] = biological target: T2, α4β1; assay: Equilibrium binding on Jurkat cells, competition with 35S-B as reporter
Protocol: The α4β1-expressing Jurkat human T-cell line (a gift from S. Burakoff, Dana Farber Cancer Institute, Boston, Mass.), and the α4β7-expressing human B-cell line, JY (American Type Tissue Collection, Rockville, Md.) were maintained in culture at 37° C. in RPMI-1640 medium supplemented with 10% fetal bovine serum (FBS). K562 cell lines transfected with either the human α1-integrin chain (Phil Gotwells, Biogen, Inc) or with the human α2 integrin chain (a gift from M. Hemler, Dana Farber Cancer Institute, Boston, Mass.) were maintained in RPMI-1640 medium supplemented with 10% FBS and 1 mg/mL G418. All cells were periodically monitored for high integrin surface expression by FACS analysis. The binding of the various inhibitors to α4β1 were assessed on Jurkat cells by competition using radioactive ^35S-B as a reporter for a 1 occupancy. Jurkat cells were pelleted by centrifugation, washed two times with TBS (50 mM Tris HCl, 150 mM NaCl, 0.1% bovine serum albumin, 2 mM glucose, 10 mM HEPES pH 7.4), suspended at approximately 2×10^6 cells/mL in TBS, and counted using a Neubauer hemocytometer. The cells were further diluted 2×10^6 cells/mL with TBS containing 1 mM CaCl2 and 1 mM MgCl2 and treated with serial dilutions of test compound for 1 hour, and then 5 nM ^35S-B, an amount sufficient to bind all unoccupied receptors, was added for 10 minutes before measuring the bound counts. The cells were then pelleted by centrifugation, resuspended in 100 μL of TBS plus Mn^2+, and transferred to a scintillation vial containing 2.9 mL of ScintiVerse II (Fisher Scientific). Cell-associated radioactivity was quantified by scintillation counting. All studies were performed in siliconized 1.5 mL eppendorf tubes with a standard 1 mL sample volume. Each condition was tested in at least two independent studies. Non-specific binding of ^35S-B to cells was assessed at each cell density and ^35S-B concentration in TBS but in the absence of added metal ion. Specific counts bound were calculated by subtracting non specific counts from total counts bound. Counts bound under these conditions measures integrin that is not occupied by the test compound and is therefore free to bind the ^35S-B. The competition format was also used for kinetic binding studies. Binding and dissociation constants were calculated from α4β1 that remained free to bind the ^35S-B after treatment with test compound.
The affinities of the PEGylated inhibitors for α4β1 were calculated from association and disassociation rate constants using a kinetic analysis. For these studies, Jurkat cells expressing α4β1 (75,000 copies/cell) were treated with the inhibitors and then ^35S-B was added as a probe to detect free α4β1. The levels of bound inhibitor were calculated from a measure of total ^35S-B bound in the absence of added inhibitor and counts bound following inhibitor treatment. […] IC50 values were calculated from equilibrium binding studies on Jurkat cells through competition using ^35S-B as a reporter in buffer containing 1 mM Ca^2+ and 1 mM Mg^2+.
Second, the effect of protein binding on the affinity of the PEGylated inhibitors for α4β1 on Jurkat cells was evaluated from equilibrium binding measurements.

[3] = IC50, buffer with 1 mM Ca2+ and 1 mM Mg2+, no plasma

T2 sequence (P05556 21-798, one chain of several): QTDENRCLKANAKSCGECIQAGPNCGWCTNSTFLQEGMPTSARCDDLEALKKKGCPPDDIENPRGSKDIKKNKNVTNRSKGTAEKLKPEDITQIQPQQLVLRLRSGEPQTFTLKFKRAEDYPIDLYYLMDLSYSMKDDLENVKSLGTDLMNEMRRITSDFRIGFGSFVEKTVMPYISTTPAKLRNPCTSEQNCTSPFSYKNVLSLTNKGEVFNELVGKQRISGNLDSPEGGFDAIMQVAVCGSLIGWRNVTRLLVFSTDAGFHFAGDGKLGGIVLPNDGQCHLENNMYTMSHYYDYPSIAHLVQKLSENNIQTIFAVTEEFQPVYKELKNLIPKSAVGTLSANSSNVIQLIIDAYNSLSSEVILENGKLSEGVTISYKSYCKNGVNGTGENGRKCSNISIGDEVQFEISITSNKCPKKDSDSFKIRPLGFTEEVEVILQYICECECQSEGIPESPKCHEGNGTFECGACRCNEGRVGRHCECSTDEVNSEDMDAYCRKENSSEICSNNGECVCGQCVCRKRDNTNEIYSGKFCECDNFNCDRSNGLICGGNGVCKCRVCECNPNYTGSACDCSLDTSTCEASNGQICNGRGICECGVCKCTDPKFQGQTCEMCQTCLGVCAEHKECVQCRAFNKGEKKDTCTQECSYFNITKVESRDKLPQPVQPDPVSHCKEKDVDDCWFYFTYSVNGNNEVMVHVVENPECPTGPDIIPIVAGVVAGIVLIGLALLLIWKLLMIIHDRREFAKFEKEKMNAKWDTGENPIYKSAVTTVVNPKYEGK

pIC50 (α4β7; direct binding) | % bound Ca2+Mg2+ 30 min (α4β1 [1]; Ca2+Mg2+, 30 min) [%] | On-rate (α4β1 [1]; Jurkat cells, 35S-B probe) [M⁻¹ s⁻¹] | % bound Mn2+ 60 min (α4β1 [1]; Mn2+, 60 min) [%] | SMILES | koff (α4β1 [1]; Jurkat cells, 35S-B probe) [s⁻¹] | kon (α4β1 [1]; Jurkat cells, 35S-B probe) [M⁻¹ s⁻¹] | pKd (α4β1 [1]; Jurkat cells) | pIC50 (α4β1 [2]; IC50(HP), 100% human plasma) | pIC50 (α4β1 [2]; [3]) | affinity higher for α4β1 than for α4β7 (α4β7; α4β1 versus α4β7)
< 6.00 | >90 | 4e+06 | >95 | Cc1ccccc1NC(=O)Nc1ccc(CC(=O)N(C)[C@@H](CC(C)C)C(=O)NCC[C@H](NC(=O)C2CCCN2S(=O)(=O)c2ccccc2)C(=O)O)cc1 (stereo partly drawn) [Compound B, 2S-[(1-benzenesulfonyl-pyrrolidine-2S-carbonyl)-amino]-4-[4-methyl-2S-(methyl-{2-[4-(3-o-tolyl-ureido)-phenyl]-acetyl}-amino)-pentanoylamino]-butyric acid] | 1.9e-05 | 4e+06 | 11.30 | 8.82 | 9.68 | 
 |  |  |  | Cc1ccccc1NC(=O)Nc1ccc(CC(=O)N(C)[C@@H](CC(C)C)C(=O)NCC[C@H](NC(=O)[C@@H]2CCCN2S(=O)(=O)c2cc(Cl)cc(Cl)c2)C(=O)O)cc1 [Compound R, 2S-{[1-(3,5-dichloro-benzenesulfonyl)-pyrrolidine-2S-carbonyl]-amino}-4-[4-methyl-2S-(methyl-{2-[4-(3-o-tolyl-ureido)-phenyl]-acetyl}-amino)-pentanoylamino]-butyric acid] | 1.2e-05 | 1.5e+06 | 11.05 | 9.10 | 9.82 | > 2,000 fold

Reference: patent US7196112B2, “Cell adhesion inhibitors” (Biogen Idec MA Inc., priority 2004, dated 2007)
